Article PMC6149812, “Access to New Cytotoxic Quinone-Amino Acid Conjugates Linked through A Vinylic Spacer from 2-Acylnaphthoquinones and Methyl 3-Aminocrotonate” (Molecules : A Journal of Synthetic Chemistry and Natural …, 2017)
Where two headings read alike, the source gives them in different places.

Experiments:
[1] = tested on: AGS human gastric adenocarcinoma cells; assay: MTT reduction cytotoxicity assay, 72 h drug exposure, AGS; type: cell-based; settings: human gastric adenocarcinoma cell line, 72 h exposure, average of six determinations, read-out: IC50 ± SEM, AGS
[2] = tested on: SK-MES-1 human lung cancer cells; assay: MTT reduction cytotoxicity assay, 72 h drug exposure, SK-MES-1; type: cell-based; settings: 72 h exposure, average of six determinations, read-out: IC50 ± SEM, SK-MES-1
[3] = tested on: MRC-5 normal human lung fibroblasts; assay: cells; settings: MRC5, 72 h, read-out: IC50 ± SEM, MRC-5
Experimental: (§1) Cytotoxic activities of the compounds are expressed in terms of IC50. Etoposide, a clinically used anticancer agent, was taken as a positive control.
(§2) Media were supplemented with 10% heat-inactivated fetal bovine serum (FBS), 100 IU/mL penicillin and 100 μg/mL streptomycin and cell cultures were kept in a humidified incubator with 5% CO2 in air at 37 °C. For the cytotoxicity experiments, cells were seeded into 96-well plates at a density of 50,000 cells/mL. After reaching confluence, cells were incubated for three days with compounds at varied concentrations ranging from 0 up to 100 μM while untreated cells (medium containing 1% DMSO) were used as controls. Cytotoxicity was assessed using the MTT (3-(4,5-dimethylthiazol-2-yl)-2,5-diphenyltetrazolium bromide) reduction assay. […] Values were the means of six replicates for each concentration and transformed to percentage of controls.

[4] = tested on: J82 human bladder carcinoma cells; assay: MTT reduction cytotoxicity assay, 72 h drug exposure, J82; type: cell-based; settings: human bladder carcinoma cell line, 72 h exposure, average of six determinations, read-out: IC50 ± SEM, J82
[5] = MTT reduction cytotoxicity assay, 72 h drug exposure, cell line panel of Table 3; type: cell-based; settings: human, summary range over the cell lines of Table 3, 72 h exposure, read-out: cytotoxic activities, range of IC50 over Table 3
Experimental: Finally, HL-60 cells were grown in RPMI medium.

[6] = tested on: MRC-5 normal human lung fibroblasts; settings: for IC50: read-out: IC50 ± SEM, MRC-5, normal human lung fibroblasts, 72 h exposure, MTT, average of six determinations
Experimental: as §1, §2

[7] = SK-MES-1, human lung cancer cell line

Q: With `COC(=O)C1=C(C)N(CCO)C(C)(O)C2=C1C(=O)c1ccccc1C2=O` (stereo not shown) [Compound 5a, Methyl 1-hydroxy-2-(2-hydroxyethyl)-1,3-dimethyl-5,10-dioxo-1,2,5,10-tetrahydrobenzo[g]isoquinoline-4-carboxylate] as the compound, how does the melting point read?
A: Its melting point is 215 to 217 °C.

Q: For `COC(=O)C1=C(C)N(CCO)C(O)(c2ccccc2)C2=C1C(=O)c1ccccc1C2=O` (stereo not shown) [Compound 5b, Methyl 1-hydroxy-2-(2-hydroxyethyl)-3-methyl-5,10-dioxo-1-phenyl-1,2,5,10-tetrahydrobenzo[g] isoquinoline-4-carboxylate], which melting point is on record?
A: The melting point was 236.5 to 238.5 °C.

Q: With `COC(=O)/C(C1=C(C(=O)c2ccccc2)C(=O)c2ccccc2C1=O)=C(/C)N[C@@H](C)C(=O)OC` [Compound 6, Methyl (S,Z)-2-(3-benzoyl-1,4-dioxo-1,4-dihydronaphthalen-2-yl)-3-[(1-methoxy-1-oxopropan-2-yl)amino]-but-2-enoate] as the compound, how does the IC50 [1] read?
A: The IC50 was 52.7 ± 3.7 µM.

Q: And the IC50 [2, 7]?
A: Its IC50 is 47.8 ± 3.3 µM.

Q: What about the IC50 [3] of the same compound?
A: The IC50 was 58 ± 4.1 µM.

Q: What about the IC50 [4] of the same compound?
A: The IC50 was 37.1 ± 2.2 µM.

Q: What about the melting point of the same compound?
A: Its melting point is 217 to 218 °C.

Q: What about the IC50 at 72 h [5] of the same compound?
A: The IC50 at 72 h was 4.5 to 53.4 µM.

Q: With `COC(=O)/C(C1=C(C(=O)c2ccccc2)C(=O)c2ccccc2C1=O)=C(/C)N[C@H](C)C(=O)OC` [Compound 7, Methyl (R,Z)-2-(3-benzoyl-1,4-dioxo-1,4-dihydronaphthalen-2-yl)-3-[(1-methoxy-1-oxopropan-2-yl)amino]-but-2-enoate] as the compound, how does the IC50 [1] read?
A: Its IC50 is 20.5 ± 1.1 µM.

Q: And the IC50 [2, 7]?
A: The IC50 was 53.4 ± 4.3 µM.

Q: What about the IC50 [3] of the same compound?
A: Its IC50 is 17.4 ± 0.7 µM.

Q: And the IC50 [4]?
A: Its IC50 is 35.6 ± 1.4 µM.

Q: And the IC50 at 72 h [5]?
A: Its IC50 at 72 h is 4.5 to 53.4 µM.

Q: With `COC(=O)/C(C1=C(C(=O)c2ccccc2)C(=O)c2ccccc2C1=O)=C(/C)N[C@@H](CC(C)C)C(=O)OC` [Compound 8, Methyl (Z)-[3-(3-benzoyl-1,4-dioxo-1,4-dihydronaphthalen-2-yl)-4-methoxy-4-oxobut-2-en-2-yl]-L-leucinate] as the compound, how does the IC50 [1] read?
A: Its IC50 is 26.9 ± 1.5 µM.

Q: What about the IC50 [2, 7] of the same compound?
A: The IC50 was 34.5 ± 1.7 µM.

Q: And the IC50 [3]?
A: Its IC50 is 26.6 ± 1.3 µM.

Q: What about the IC50 [4] of the same compound?
A: The IC50 was 12.9 ± 0.9 µM.

Q: And the melting point?
A: Its melting point is 222.5 to 224.5 °C.

Q: And the IC50 at 72 h [5]?
A: The IC50 at 72 h was 4.5 to 53.4 µM.

Q: Which IC50 [1] does the source give for `CCCCCC(=O)C1=C(/C(C(=O)OC)=C(\C)N[C@@H](CC(C)C)C(=O)OC)C(=O)c2ccccc2C1=O` [Compound 13, Methyl (Z)-[3-(3-hexanoyl-1,4-dioxo-1,4-dihydronaphthalen-2-yl)-4-methoxy-4-oxobut-2-en-2-yl]-L-leucinate] here?
A: The IC50 was 17 ± 1.1 µM.

Q: What about the IC50 [2, 7] of the same compound?
A: Its IC50 is 21.6 ± 1.3 µM.

Q: And the IC50 [3]?
A: The IC50 was 24.9 ± 0.7 µM.

Q: And the IC50 [4]?
A: The IC50 was 23.5 ± 1.6 µM.

Q: And the IC50 at 72 h [5]?
A: Its IC50 at 72 h is 4.5 to 53.4 µM.

Q: What does the source list for `COc1cc([C@@H]2c3cc4c(cc3[C@@H](O[C@@H]3O[C@@H]5CO[C@@H](C)O[C@H]5[C@H](O)[C@H]3O)[C@H]3COC(=O)[C@H]23)OCO4)cc(OC)c1O` [Ref., etoposide, reference compound]?
A: IC50 [1]: 0.4 µM; IC50 [2, 7]: 2.9 ± 0.2 µM; IC50 [3]: 2.2 ± 0.1 µM; IC50 [4]: 3.3 ± 0.2 µM

Q: Which IC50 [1] does the source give for “Methyl (R,Z)-2-(3-benzoyl-1,4-dioxo-1,4-dihydronaphthalen-2-yl)-3-[(1-methoxy-1-oxo-3-phenylpropan-2-yl)amino]-but-2-enoate [Compound 10]” here?
A: Its IC50 is 30.7 ± 1.5 µM.

Q: What about the IC50 [6] of the same compound?
A: Its IC50 is 46.7 ± 2.9 µM.

Q: And the IC50 ([2]; human lung cancer cell line)?
A: The IC50 was 34.2 ± 2.3 µM.

Q: What about the IC50 [4] of the same compound?
A: The IC50 was 23 ± 0.7 µM.

Q: Which results are given for “Methyl (R,Z)-2-(3-butyryl-1,4-dioxo-1,4-dihydronaphthalen-2-yl)-3-[(1-methoxy-1-oxo-3-phenylpropan-2-yl)amino]-but-2-enoate [Compound 12]”?
A: IC50 [1]: 12.8 ± 0.7 µM; IC50 [6]: 21.8 ± 1.5 µM; IC50 ([2]; human lung cancer cell line): 15.9 ± 0.9 µM; IC50 [4]: 14 ± 0.6 µM

Q: For “Methyl (S,Z)-2-(3-benzoyl-1,4-dioxo-1,4-dihydronaphthalen-2-yl)-3-[(1-methoxy-1-oxo-3-phenylpropan-2-yl)amino]-but-2-enoate [Compound 9]”, which IC50 [1] is on record?
A: The IC50 was 19.3 ± 1.5 µM.

Q: And the IC50 [6]?
A: The IC50 was 33.3 ± 2.2 µM.

Q: And the IC50 ([2]; human lung cancer cell line)?
A: The IC50 was 39.3 ± 1.6 µM.

Q: And the IC50 [4]?
A: The IC50 was 22 ± 1.1 µM.

Q: Which results are given for “Methyl (S,Z)-3-[(3-(1H-indol-3-yl)-1-methoxy-1-oxopropan-2-yl)amino]-2-(3-benzoyl-1,4-dioxo-1,4-dihydronaphthalen-2-yl)-but-2-enoate [Compound 11]”?
A: IC50 [1]: 10.1 ± 0.1 µM; IC50 [6]: 13 ± 0.8 µM; IC50 ([2]; human lung cancer cell line): 18.9 ± 0.5 µM; IC50 [4]: 21.4 ± 0.8 µM

Q: For “Methyl (S,Z)-3-[(3-(1H-indol-3-yl)-1-methoxy-1-oxopropan-2-yl)amino]-2-(3-hexanoyl-1,4-dioxo-1,4-dihydronaphthalen-2-yl)but-2-enoate [Compound 14]”, which IC50 [1] is on record?
A: Its IC50 is 9.3 ± 0.6 µM.

Q: And the “cytotoxicity relative to etoposide on normal human lung fibroblasts cells” value [6]?
A: Its value is “ten times lower”.

Q: And the IC50 [6]?
A: The IC50 was 22.1 ± 1.6 µM.

Q: And the IC50 ([2]; human lung cancer cell line)?
A: Its IC50 is 5.5 ± 0.2 µM.

Q: And the IC50 [4]?
A: Its IC50 is 4.5 ± 0.2 µM.
